Experimental data taken from patent US12077503B2, “Substituted cyclic amides and their use as herbicides” (FMC CORPORATION, priority 2015, dated 2024).

Key:
Type in all cases: in vivo
[1] = tested on: giant foxtail (Setaria faberi); test: Test G Post-Emergence Protocol; conditions: Setaria faberi, post-emergence, 312 h; for pest or weed control at 15.625 g/ha: 15.625 g ai/ha, evaluated after 13 days (100=total damage to plant; 0=no damage to plant), read-out: Foxtail, Giant damage rating; for pest or weed control at 62.5 g/ha: 62.5 g ai/ha, read-out: Foxtail, Giant damage rating (100=total damage to plant; 0=no damage to plant); for pest or weed control at 62.5 g/ha / pest or weed control at 250 g/ha: evaluated after 13 days; for pest or weed control at 250 g/ha: 250 g ai/ha, read-out: damage to plant, Foxtail, Giant (100=total damage to plant; 0=no damage to plant)
Outline: (§1)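 Seedlings grown 8 days in soil in a glasshouse (24/16 °C day/night, 14 h light, 65% humidity) were sprayed post-emergence with compound in acetone/water 50:50 plus 0.5% Tween 20 at 15.625, 62.5 or 250 g/ha. Damage was scored after 13 days on a 0–100 scale (100 = total damage).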

[2] = tested on: barnyardgrass (Echinochloa crus-galli); test: Test G Post-Emergence Protocol; conditions: Echinochloa crus-galli, post-emergence, 312 h; for pest or weed control at 15.625 g/ha: 15.625 g ai/ha, evaluated after 13 days (100=total damage to plant; 0=no damage to plant), read-out: Barnyardgrass damage rating; for pest or weed control at 62.5 g/ha: 62.5 g ai/ha, read-out: Barnyardgrass damage rating (100=total damage to plant; 0=no damage to plant); for pest or weed control at 62.5 g/ha / pest or weed control at 250 g/ha: evaluated after 13 days; for pest or weed control at 250 g/ha: 250 g ai/ha, read-out: damage to plant, Barnyardgrass (100=total damage to plant; 0=no damage to plant)
Outline: as §1

[3] = tested on: ivy-leaved morning glory (Ipomoea hederacea); test: Test G Post-Emergence Protocol; conditions: Ipomoea, post-emergence, 312 h; for pest or weed control at 15.625 g/ha: 15.625 g ai/ha, evaluated after 13 days (100=total damage to plant; 0=no damage to plant), read-out: Morningglory, Ivy-leaved damage rating; for pest or weed control at 62.5 g/ha: 62.5 g ai/ha, read-out: Morningglory, Ivy-leaved damage rating (100=total damage to plant; 0=no damage to plant); for pest or weed control at 62.5 g/ha / pest or weed control at 250 g/ha: evaluated after 13 days; for pest or weed control at 250 g/ha: 250 g ai/ha, read-out: damage to plant, Morningglory, Ivy-leaved (100=total damage to plant; 0=no damage to plant)
Outline: as §1

corn (Zea mays) [4] = test: Test G Post-Emergence Protocol; conditions: Zea mays, post-emergence, 312 h; for plant injury at 15.625 g/ha: 15.625 g ai/ha, evaluated after 13 days (100=total damage to plant; 0=no damage to plant), read-out: Corn damage rating; for plant injury at 62.5 g/ha: 62.5 g ai/ha, read-out: Corn damage rating (100=total damage to plant; 0=no damage to plant); for plant injury at 62.5 g/ha / plant injury at 250 g/ha: evaluated after 13 days; for plant injury at 250 g/ha: 250 g ai/ha, read-out: damage to plant, Corn (100=total damage to plant; 0=no damage to plant)
Outline: as §1

[5] = tested on: redroot pigweed (Amaranthus retroflexus); test: Test G Post-Emergence Protocol; conditions: Amaranthus retroflexus, post-emergence, 312 h; for pest or weed control at 15.625 g/ha: 15.625 g ai/ha, evaluated after 13 days (100=total damage to plant; 0=no damage to plant), read-out: Pigweed, Redroot damage rating; for pest or weed control at 62.5 g/ha: 62.5 g ai/ha, read-out: Pigweed, Redroot damage rating (100=total damage to plant; 0=no damage to plant); for pest or weed control at 62.5 g/ha / pest or weed control at 250 g/ha: evaluated after 13 days; for pest or weed control at 250 g/ha: 250 g ai/ha, read-out: damage to plant, Pigweed, Redroot (100=total damage to plant; 0=no damage to plant)
Outline: as §1

[6] = tested on: velvetleaf (Abutilon theophrasti); test: Test G Post-Emergence Protocol; conditions: Abutilon theophrasti, post-emergence, 312 h; for pest or weed control at 15.625 g/ha: 15.625 g ai/ha, evaluated after 13 days (100=total damage to plant; 0=no damage to plant), read-out: Velvetleaf damage rating; for pest or weed control at 62.5 g/ha: 62.5 g ai/ha, read-out: Velvetleaf damage rating (100=total damage to plant; 0=no damage to plant); for pest or weed control at 62.5 g/ha / pest or weed control at 250 g/ha: evaluated after 13 days; for pest or weed control at 250 g/ha: 250 g ai/ha, read-out: damage to plant, Velvetleaf (100=total damage to plant; 0=no damage to plant)
Outline: as §1

[7] = tested on: giant foxtail (Setaria faberi); test: Test G Pre-Emergence Protocol; conditions: Setaria faberi, pre-emergence, 312 h, evaluated after 13 days; for pest or weed control at 15.625 g/ha: 15.625 g ai/ha; for pest or weed control at 15.625 g/ha / pest or weed control at 250 g/ha: read-out: Foxtail, Giant damage rating (100=total damage to plant; 0=no damage to plant); for pest or weed control at 62.5 g/ha: 62.5 g ai/ha, 100=total damage to plant, 0=no damage to plant, read-out: plant damage rating, Foxtail, Giant; for pest or weed control at 250 g/ha: 250 g ai/ha
Outline: (§2)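 Scores are visual damage ratings from 0 (no damage) to 100 (total plant kill), taken 13 days after treatment. Compound was sprayed one day post-sowing at 15.625, 62.5 or 250 g/ha in 50:50 acetone/water with 0.5% Tween 20.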

[8] = tested on: barnyardgrass (Echinochloa crus-galli); test: Test G Pre-Emergence Protocol; conditions: Echinochloa crus-galli, pre-emergence, 312 h, evaluated after 13 days; for pest or weed control at 15.625 g/ha: 15.625 g ai/ha, read-out: Barnyard grass damage rating (100=total damage to plant; 0=no damage to plant); for pest or weed control at 62.5 g/ha: 62.5 g ai/ha, 100=total damage to plant, 0=no damage to plant, read-out: plant damage rating, Barnyardgrass; for pest or weed control at 250 g/ha: 250 g ai/ha, read-out: Barnyardgrass damage rating (100=total damage to plant; 0=no damage to plant)
Outline: as §2

[9] = tested on: ivy-leaved morning glory (Ipomoea hederacea); test: Test G Pre-Emergence Protocol; conditions: Ipomoea, pre-emergence, 312 h, evaluated after 13 days; for pest or weed control at 15.625 g/ha: 15.625 g ai/ha, read-out: Morning-glory, Ivy-leaved damage rating (100=total damage to plant; 0=no damage to plant); for pest or weed control at 62.5 g/ha: 62.5 g ai/ha, 100=total damage to plant, 0=no damage to plant, read-out: plant damage rating, Morningglory, Ivy-leaved; for pest or weed control at 250 g/ha: 250 g ai/ha, read-out: Morningglory, Ivy-leaved damage rating (100=total damage to plant; 0=no damage to plant)
Outline: as §2

corn (Zea mays) [10] = test: Test G Pre-Emergence Protocol; conditions: Zea mays, pre-emergence, 312 h, evaluated after 13 days; for plant injury at 15.625 g/ha: 15.625 g ai/ha; for plant injury at 15.625 g/ha / plant injury at 250 g/ha: read-out: Corn damage rating (100=total damage to plant; 0=no damage to plant); for plant injury at 62.5 g/ha: 62.5 g ai/ha, 100=total damage to plant, 0=no damage to plant, read-out: plant damage rating, Corn; for plant injury at 250 g/ha: 250 g ai/ha
Outline: as §2

[11] = tested on: redroot pigweed (Amaranthus retroflexus); test: Test G Pre-Emergence Protocol; conditions: Amaranthus retroflexus, pre-emergence, 312 h, evaluated after 13 days; for pest or weed control at 15.625 g/ha: 15.625 g ai/ha; for pest or weed control at 15.625 g/ha / pest or weed control at 250 g/ha: read-out: Pigweed, Redroot damage rating (100=total damage to plant; 0=no damage to plant); for pest or weed control at 62.5 g/ha: 62.5 g ai/ha, 100=total damage to plant, 0=no damage to plant, read-out: plant damage rating, Pigweed, Redroot; for pest or weed control at 250 g/ha: 250 g ai/ha
Outline: as §2

[12] = tested on: velvetleaf (Abutilon theophrasti); test: Test G Pre-Emergence Protocol; conditions: Abutilon theophrasti, pre-emergence, 312 h, evaluated after 13 days; for pest or weed control at 15.625 g/ha: 15.625 g ai/ha; for pest or weed control at 15.625 g/ha / pest or weed control at 250 g/ha: read-out: Velvetleaf damage rating (100=total damage to plant; 0=no damage to plant); for pest or weed control at 62.5 g/ha: 62.5 g ai/ha, 100=total damage to plant, 0=no damage to plant, read-out: plant damage rating, Velvetleaf; for pest or weed control at 250 g/ha: 250 g ai/ha
Outline: as §2

| Compound | pest or weed control at 15.625 g/ha [1] | pest or weed control at 62.5 g/ha [1] | pest or weed control at 250 g/ha [1] | pest or weed control at 15.625 g/ha [2] | pest or weed control at 62.5 g/ha [2] | pest or weed control at 250 g/ha [2] | pest or weed control at 15.625 g/ha [3] | pest or weed control at 62.5 g/ha [3] | pest or weed control at 250 g/ha [3] | plant injury at 15.625 g/ha (corn (Zea mays) [4]) | plant injury at 62.5 g/ha (corn (Zea mays) [4]) | plant injury at 250 g/ha (corn (Zea mays) [4]) | pest or weed control at 15.625 g/ha [5] | pest or weed control at 62.5 g/ha [5] | pest or weed control at 250 g/ha [5] | pest or weed control at 15.625 g/ha [6] | pest or weed control at 62.5 g/ha [6] | pest or weed control at 250 g/ha [6] | pest or weed control at 15.625 g/ha [7] | pest or weed control at 62.5 g/ha [7] | also measured |
| --- | --- | --- | --- | --- | --- | --- | --- | --- | --- | --- | --- | --- | --- | --- | --- | --- | --- | --- | --- | --- | --- |
| CN1C[C@@H](c2ccc(C(F)(F)F)cc2)[C@H](C(=O)Nc2cccnn2)C1=O (racemic) [Compound 1577] | 0% | 0% | 0% | 0% | 0% | 0% | 0% | 0% | 0% | 0% | 0% | 0% | 0% | 0% | 0% | 0% | 0% | 0% | 0% | 0% | pest or weed control at 250 g/ha [7]: 0%; pest or weed control at 15.625 g/ha [8]: 0%; pest or weed control at 62.5 g/ha [8]: 0%; pest or weed control at 250 g/ha [8]: 0%; pest or weed control at 15.625 g/ha [9]: 0%; pest or weed control at 62.5 g/ha [9]: 0%; pest or weed control at 250 g/ha [9]: 0%; plant injury at 15.625 g/ha (corn (Zea mays) [10]): 0%; plant injury at 62.5 g/ha (corn (Zea mays) [10]): 0%; plant injury at 250 g/ha (corn (Zea mays) [10]): 0%; pest or weed control at 15.625 g/ha [11]: 0%; pest or weed control at 62.5 g/ha [11]: 0%; pest or weed control at 250 g/ha [11]: 0%; pest or weed control at 15.625 g/ha [12]: 0%; pest or weed control at 62.5 g/ha [12]: 0%; pest or weed control at 250 g/ha [12]: 0% |
| Cc1c(Br)cccc1NC(=O)[C@@H]1C(=O)N(C)C[C@H]1c1ccc(C(F)(F)F)cc1 (racemic) [Compound 1619] | 0% | 60% | 70% | 0% | 10% | 70% | 0% | 10% | 30% | 0% | 0% | 10% | 0% | 20% | 50% | 0% | 0% | 0% | 0% | 0% | pest or weed control at 250 g/ha [7]: 70%; pest or weed control at 15.625 g/ha [8]: 0%; pest or weed control at 62.5 g/ha [8]: 0%; pest or weed control at 250 g/ha [8]: 10%; pest or weed control at 15.625 g/ha [9]: 0%; pest or weed control at 62.5 g/ha [9]: 0%; pest or weed control at 250 g/ha [9]: 10%; plant injury at 15.625 g/ha (corn (Zea mays) [10]): 0%; plant injury at 62.5 g/ha (corn (Zea mays) [10]): 0%; plant injury at 250 g/ha (corn (Zea mays) [10]): 0%; pest or weed control at 15.625 g/ha [11]: 0%; pest or weed control at 62.5 g/ha [11]: 0%; pest or weed control at 250 g/ha [11]: 20%; pest or weed control at 15.625 g/ha [12]: 0%; pest or weed control at 62.5 g/ha [12]: 0%; pest or weed control at 250 g/ha [12]: 10% |
| Cc1nonc1NC(=O)[C@@H]1C(=O)N(C)C[C@H]1c1ccc(C(F)(F)F)cc1 (racemic) [Compound 1597] | 0% | 0% | 0% | 0% | 0% | 0% | 0% | 0% | 0% | 0% | 0% | 0% | 0% | 0% | 0% | 0% | 0% | 0% | 0% | 0% | pest or weed control at 250 g/ha [7]: 0%; pest or weed control at 15.625 g/ha [8]: 0%; pest or weed control at 62.5 g/ha [8]: 0%; pest or weed control at 250 g/ha [8]: 0%; pest or weed control at 15.625 g/ha [9]: 0%; pest or weed control at 62.5 g/ha [9]: 0%; pest or weed control at 250 g/ha [9]: 0%; plant injury at 15.625 g/ha (corn (Zea mays) [10]): 0%; plant injury at 62.5 g/ha (corn (Zea mays) [10]): 0%; plant injury at 250 g/ha (corn (Zea mays) [10]): 0%; pest or weed control at 15.625 g/ha [11]: 0%; pest or weed control at 62.5 g/ha [11]: 0%; pest or weed control at 250 g/ha [11]: 0%; pest or weed control at 15.625 g/ha [12]: 0%; pest or weed control at 62.5 g/ha [12]: 0%; pest or weed control at 250 g/ha [12]: 0% |
